In patent US20240299266A1, “FRAGRANCE COMPOSITIONS WITH MOISTURIZING BENEFITS” (Firmenich SA, priority 2021, published 2024):
“Also recorded” adds a separate entry of the source.

Assay: TEWL (trans-epidermal water loss) measurement on in-vitro skin model
Details: 50 μL applied on hydrated artificial skin membrane on a Franz Cell, Vapometer, TEWL during 60 min, normalized to pre-treatment reference (100%)
Text: The present inventors have investigated the moisturizing potential of perfume ingredients. To perform this assessment they used a model called a skin replicating surface, and measured the transepidermal water loss (TEWL) before and after the deposit of a sample of the perfume ingredient. This is measure of the moisturizing activity of the perfume ingredient.
The moisturizing activity of a fragrance component may be calculated as follows. • a step of controlled deposition of a fragrance component upon an skin replicating surface, • a step of measurement of a quantity of evaporated water from the skin replicating surface or of remaining water on the skin replicating surface after the deposition of the fragrance component at different measurement times, • a step of reduction of the water evaporation rate calculation depending on the measured evaporated or remaining water quantities measured, • a step of moisturizing activity calculation as a function of the water evaporation rate measured.
The skin replicating surface comprising (i) a hydrogel membrane layer comprising a water permeable substrate supporting a biopolymer, and (ii) a stratum corneum mimic layer.
The hydrogel membrane composition should include a knitted cotton piece topped by a hydrogel containing biopolymer (gelatin) able to form a hydrogel with water and glycerol.
The stratum corneum mimic layer can be a Vitro-Corneum substrate (product of IMS inc.)
Before measurements, the hydrogel membrane and the Vitro-Corneum substrate should be separately hydrated in a hydration chamber and then, assembled. The Vitro-Corneum substrate is made of proteins and lipids and mimics the thickness, the visco-elasticity, the chemical reactivity and the surface properties of human stratum corneum. The hydrogel allows to keep the Vitro-Corneum substrate hydrated.
Hydrogel is prepared by mixing gelatin, glycerol and water at a water bath in the following composition. Preferably around 50% of the hydrogel is glycerol and around 5% is gelatin completed to 100% with water. This is added to a supporting surface and allowed to set.
Both part of the artificial skin model needs to be hydrated before being assembled. Hydrogel membranes and the Vitro-Corneum substrate (2×2 cm) are placed into an hydration chamber containing the glycerol/water wetting solution. Hydrogel membranes are hydrated and Vitro-Corneum substrates are hydrated. When the hydration is complete, the Vitro-Corneum substrate is deposited on the hydrogel. The final skin model is now ready for experiments.
The TEWL (Trans-Epidermal Water Loss) measurements were performed with a Vapometer and Moisturemeter, product of Delfin Technologies (Finland).
Hydrated artificial skin membrane is placed on the top of a Franz Cell, 50 μL of the product to be tested is applied on the membrane and spread manually with a finger protected by a glove. The Vapometer measures the water evaporation rate thanks to sensitive humidity sensors mounted in a cylindrical measurement chamber at the core of the device. During the measurement, the chamber is closed by the support and unaffected by ambient airflows. The water evaporation rate (g/m^2 h) is calculated from the increase of relative humidity in function of time. Ambient temperature and humidity are recorded using an external room sensor.
For our TEWL measurement method, each experiment lasts one hour, and several measurements were taken at different time points during this period.
All the experiments were compared to a reference system: hydrated artificial skin model, pre-treatment, without raw material application. […] For each experiment, the evaporation rate was measured before the ingredient application and the TEWL results were normalized by its value. With the normalization, the reference corresponds to 100% of water evaporation.

Row | Molecule | moisturizing (reduction of water evaporation rate / TEWL after deposit of the sample) | further results
1 | 1-oxa-12-cyclohexadecen-2-one (a)+1-oxa-13-cyclohexadecen-2-one | suitable moisturizing potential | 
2 | (3RS,3aRS,6SR,7aSR)-3,6-dimethylhexahydro-1-benzofuran-2(3H)-one (A)+(3RS,3aSR,6RS,7aRS)-3,6-dimethylhexahydro-1-benzofuran-2(3H)-one (B) | have moisturizing effects; also recorded: suitable moisturizing potential | 
3 | C=CCCC(=O)C1=CCCC(C)(C)C1 [1-(5,5-dimethyl-1-cyclohexen-1-yl)-4-penten-1-one] | suitable moisturizing potential | 
4 | CCCCC[C@@H]1C(=O)CCCC[C@H]1CC(=O)OC [(+)-methyl (1s)-trans-3-oxo-2-pentyl-1-cycloheptaneacetate] | suitable moisturizing potential | moisturizing (reduction of water evaporation rate / TEWL after deposit of the sample) (listed as Cycloheptaneacetic acid, 3-oxo-2-pentyl-): have moisturizing effects
5 | CC1(C)CCC[C@]2(C)[C@H]3CCO[C@]3(C)CC[C@@H]12 [(3ar,5as,9as,9br)-3a,6,6,9a-tetramethyldodecahydronaphtho[2,1-b]furan] | suitable moisturizing potential | 
6 | CC(=O)[C@]1(C)CC2=C(CCCC2(C)C)C[C@H]1C (racemic) [1-((2rs,3rs)-2,3,8,8-tetramethyl-1,2,3,4,5,6,7,8-octahydronaphthalen-2-yl)ethenone] | suitable moisturizing potential | 
7 | O=C1CCCCCCCCCCCCCCO1 [oxacyclohexadecan-2-one] | suitable moisturizing potential | moisturizing (reduction of water evaporation rate / TEWL after deposit of the sample) (listed as Oxacyclohexadecan-2-one): have moisturizing effects
8 | C=C(C)C1CC=C(C)CC1 (stereo not shown) [1-methyl-4-(1-methylethenyl)-cyclohexene] | have moisturizing effects; also recorded: suitable moisturizing potential | 
9 | CC(=O)OCc1ccccc1 [benzyl acetate] | suitable moisturizing potential | moisturizing (reduction of water evaporation rate / TEWL after deposit of the sample) (listed as Benzyl acetate): have moisturizing effects
10 | CCC(=O)OCC(=O)O[C@@H](C)[C@@H]1CCCC(C)(C)C1 [2-{(1S)-1-[(1R)-3,3-dimethylcyclohexyl]ethoxy}-2-oxoethyl propionate] | have moisturizing effects | 
11 | CO[C@@]1(C)CC[C@@]23C[C@@H]1C(C)(C)[C@@H]2CC[C@H]3C (racemic) [(+−)-8-methoxycedrane] | have moisturizing effects; also recorded: suitable moisturizing potential | 
12 | CC1/C=C/CCCCCCCCCCC(=O)C1 (racemic) [(+−)-(4e)-3-methyl-4-cyclopentadecen-1-one] | suitable moisturizing potential | 
13 | CCC(=O)OCC(C)(C)O[C@@H](C)[C@@H]1CCCC(C)(C)C1 [(+)-2-{(1S)-1-[(1R)-3,3-dimethylcyclohexyl]ethoxy}-2-methylpropyl propionate] | suitable moisturizing potential | 
